Results from patent US20070270382A1, “Composition for Protecting Skin” (priority 2003, published 2007).

Key:
[1] = test system: skin wrinkles; assay: Skin wrinkle improving effect: wrinkles adjacent to eyes observed using a Charm View; format: in vivo, human; details: four persons having a weak skin barrier function; before and after taking sphingomyelin
Description: A capsule containing sphingomyelin 50 mg, phosphatidylserine 10 mg and gamma-linoleic acid 12.5 mg was used as a test material. Two capsules per one time were taken two times (morning and evening) a day. That is, four capsules were taken per a day and a medication period was three weeks. […] Four persons having a weak skin barrier function of the 21 examinees were selected and their skin states were measured before and after taking sphingomyelin.

[2] = test system: hairless mice; assay: Photoaging inhibitory effect of sphingomyelin (animal test, UV irradiation); format: in vivo
[3] = test system: skin barrier; assay: Skin barrier function improving effect: TEWL repair after tape stripping, before and after taking sphingomyelin; format: in vivo, human; details: for difference in TEWL, taking vs not-taking sphingomyelin (in words): 2 and 4 days
Description: In this Example, a person's sebum film was artificially injured to increase an amount of water loss. After that, it was confirmed that there was a difference of repair degrees of water loss before and after taking sphingomyelin. It was also confirmed that how much skin wrinkles due to the water loss were improved by taking sphingomyelin. A capsule containing sphingomyelin 50 mg, phosphatidylserine 10 mg and gamma-linoleic acid 12.5 mg was used as a test material. Two capsules per one time were taken two times (morning and evening) a day. That is, four capsules were taken per a day and a medication period was three weeks. Tests were carried out for 18 males and 3 females and the testing method was as follows. An amount of water loss of skin was measured for an inner region of an arm using a TEWL meter TM210. A skin wound was induced by stripping off corneum with a tape many times and increasing a TEWL value (normally, around 6˜10) to 30 or more. In other words, after inducing an injury of a skin barrier using a tape, repair aspects of TEWL values in the injured region before and after taking sphingomyelin were compared and thus a skin barrier restoring effect of sphingomyeling was confirmed. Skin barrier function in a normal state was checked by measuring TEWL in a forearm from 21 persons. A TEWL value was increased to 30 or more after tape stripping and then TEWL was measured every other day. TEWL in a normal state was measured together with a measurement of TEWL in an injured region because TEWL in a normal state can be different according to conditions of temperature, humidity and weather, etc. Meanwhile, a same test was carried out to measure a medication effect of sphingomyelin and TEWL of skin was measured while taking sphingomyelin two times a day.

## Sphingomyelin
[1]
  wrinkle improving effect (FIG. 14): had a wrinkle improving effect
[2]; UV irradiation+SM application vs UV only or UV+Vehicle, after completion of the test
  state of skin (photographs, FIGS. 2 to 4): the skin was extremely injured, compared to the case that the substrate containing sphingomyelin was applied after UV irradiation
[2]; UV irradiation+SM application, 0.5% in 1,3-butyleneglycol/distilled water/ethanol 5:3:2, UV three times per week for three months, vs UV only or UV+Vehicle
  skin barrier function (FIG. 1): the skin barrier was not easily damaged and remained in a level of the early stage of the test
[2]; UV irradiation+SM oral administration
  skin barrier function (FIG. 1): skin barrier protecting effect of sphingomyelin against ultraviolet was exhibited
[2]; sphingomyelin applied after UV irradiation vs only UV irradiation
  skin histological test (FIG. 5): epidermis and dermis: the epidermis and dermis thereof were similar to those of at the early stage of the test
[3]; 21 persons (Table 3)
  difference in TEWL, taking vs not-taking sphingomyelin (in words): no significant difference
[3]; weak skin barrier function (Table 5)
  difference in TEWL, taking vs not-taking sphingomyelin (in words): no significant difference
[3]; 6 days, weak skin barrier function (Table 5)
  difference of TEWL decreases, taking vs not-taking sphingomyelin (in words): significant difference of TEWL decreases
[3]; day 0, 21 persons, capsule with sphingomyelin 50 mg, phosphatidylserine 10 mg, gamma-linoleic acid 12.5 mg, four capsules per day
  % TEWL, taking sphingomyelin: 100 % TEWL
[3]; day 0, persons with weak skin barrier function (high TEWL in normal region)
  % TEWL, taking sphingomyelin: 100 % TEWL
[3]; day 0, six examinees with relatively high decrease rate of TEWL
  % TEWL, taking sphingomyelin: 100 % TEWL
[3]; day 2, 21 persons, oral capsules
  % TEWL, taking sphingomyelin: 43.2 ± 11.5 % TEWL
[3]; day 2, persons with weak skin barrier function
  % TEWL, taking sphingomyelin: 36.9 ± 18.9 % TEWL
[3]; day 2, six examinees with relatively high decrease rate of TEWL
  % TEWL, taking sphingomyelin: 45.7 ± 10.7 % TEWL
[3]; day 4, 21 persons, oral capsules
  % TEWL, taking sphingomyelin: 23.1 ± 8.1 % TEWL
[3]; day 4, persons with weak skin barrier function
  % TEWL, taking sphingomyelin: 19.8 ± 8 % TEWL
[3]; day 4, six examinees with relatively high decrease rate of TEWL
  % TEWL, taking sphingomyelin: 23.7 ± 7.5 % TEWL
[3]; day 6, 21 persons, oral capsules
  % TEWL, taking sphingomyelin: 14.8 ± 7 % TEWL
[3]; day 6, persons with weak skin barrier function
  % TEWL, taking sphingomyelin: 9.7 ± 5.8 % TEWL
[3]; day 6, six examinees with relatively high decrease rate of TEWL
  % TEWL, taking sphingomyelin: 7.4 ± 4.3 % TEWL
[3]; six days, 21 persons (FIG. 11), paired t-test
  difference in TEWL decrease, taking vs not-taking sphingomyelin (in words): significant difference in a TEWL decrease
